These results are taken from patent US7160893B2, “Pyrimidine-2,4-dione derivatives as matrix metalloproteinase inhibitors” (Warner-Lambert Company, priority 2002, dated 2007).

The structures appear in SMILES notation. pIC50: −log10 of the molar value.

The first test addresses MMP-13 catalytic domain (Homo sapiens, UniProt P45452). The experiment in a line: Inhibition of MMP-13 catalytic domain (thiopeptolide substrate hydrolysis assay). Type of test: biochemical. Conditions: compounds of Example 33, Biological Table 1; read-out: MMP-13CD IC50. From the text: The assays measure the amount by which a test compound reduces the hydrolysis of a thiopeptolide substrate catalyzed by a matrix metalloproteinase enzyme. Such assays are described in detail by Ye et al., in Biochemistry, 1992;31(45):11231–11235, which is incorporated herein by reference. One such assay is described below in Biological Method 1.
Thiopeptolide substrates show virtually no decomposition or hydrolysis at or below neutral pH in the absence of a matrix metalloproteinase enzyme. A typical thiopeptolide substrate commonly utilized for assays is Ac-Pro-Leu-Gly-thioester-Leu-Leu-Gly-OEt. A 100 μL assay mixture will contain 50 mM of N-2-hydroxyethylpiperazine-N′-2-ethanesulfonic acid buffer (“HEPES,” pH 7.0), 10 mM CaCl2, 100 μM thiopeptolide substrate, and 1 mM 5,5′-dithio-bis-(2-nitro-benzoic acid) (DTNB). The thiopeptolide substrate concentration may be varied, for example from 10 to 800 μM to obtain Km and Kcat values. The change in absorbance at 405 nm is monitored on a Thermo Max microplate reader (molecular Devices, Menlo Park, Calif.) at room temperature (22° C.). The calculation of the amount of hydrolysis of the thiopeptolide substrate is based on E412=13600 M^−1 cm^−1 for the DTNB-derived product 3-carboxy-4-nitrothiophenoxide. Assays are carried out with and without matrix metalloproteinase inhibitor compounds, and the amount of hydrolysis is compared for a determination of inhibitory activity of the test compounds.
Test compounds were evaluated at various concentrations in order to determine their respective IC50 values, the micromolar concentration of compound required to cause a 50% inhibition of catalytic activity of the respective enzyme.
Some representative compounds of Formula I have been evaluated for their ability to inhibit MMP-13. Inhibitor activity versus other MMPs with the compounds may be determined using, for example, MMP-1FL, which refers to full length interstitial collagenase; MMP-2FL, which refers to full length Gelatinase A; MMP-3CD, which refers to the catalytic domain of stromelysin; MMP-7FL, which refers to full length matrilysin; MMP-9FL, which refers to full length Gelatinase B; MMP-13CD, which refers to the catalytic domain of collagenase 3; and MMP-14CD, which refers to the catalytic domain of MMP-14. Test compounds can be evaluated at various concentrations in order to determine their respective IC50 values, the micromolar concentration of compound required to cause a 50% inhibition of the hydrolytic activity of the respective enzyme.
As a reminder, the pIC50 is the negative decadic logarithm of the IC50, by convention in mol/L. In the case of `Cc1c(SCCOc2ccc(F)cc2)n(C)c(=O)n(Cc2ccccc2)c1=O` [Example 33a, 3-Benzyl-6-[2-(4-fluoro-phenoxy)-ethylsulfanyl]-1,5-dimethyl-1H-pyrimidine-2,4-dione], the pIC50 is below 4.00.

On to `Cc1c(SCc2ccc3nc(C(F)(F)F)cc(Cl)c3c2)n(C)c(=O)n(Cc2ccccc2)c1=O` [Example 33b, 3-Benzyl-6-(4-chloro-2-trifluoromethyl-quinolin-6-ylmethylsulfanyl)-1,5-dimethyl-1H-pyrimidine-2,4-dione], for which the pIC50 was below 4.00.

As for `Cc1c(SCCCc2ccccc2)n(C)c(=O)n(Cc2ccccc2)c1=O` [Example 33c, 3-Benzyl-1,5-dimethyl-6-(3-phenyl-propylsulfanyl)-1H-pyrimidine-2,4-dione], the pIC50 was below 4.00.

In the case of `Cc1c(SCCC(=O)c2ccc(F)cc2)n(C)c(=O)n(Cc2ccccc2)c1=O` [Example 33d, 3-Benzyl-6-[3-(4-fluoro-phenyl)-3-oxo-propylsulfanyl]-1,5-dimethyl-1H-pyrimidine-2,4-dione], the negative-log IC50 (pIC50) was below 4.00.

On to `Cc1c(SCc2ccc3ccccc3c2)n(C)c(=O)n(Cc2ccccc2)c1=O` [Example 33e, 3-Benzyl-1,5-dimethyl-6-(naphthalen-2-ylmethylsulfanyl)-1H-pyrimidine-2,4-dione], for which the pIC50 was below 4.00.

As to `Cc1c(SCC(=O)c2ccc(-c3ccccc3)cc2)n(C)c(=O)n(Cc2ccccc2)c1=O` [Example 33f, 3-Benzyl-6-(2-biphenyl-4-yl-2-oxo-ethylsulfanyl)-1,5-dimethyl-1H-pyrimidine-2,4-dione], the pIC50 is below 4.00.

As to `Cc1c(SCc2ccccc2-c2ccccc2)n(C)c(=O)n(Cc2ccccc2)c1=O` [Example 33g, 3-Benzyl-6-(biphenyl-2-ylmethylsulfanyl)-1,5-dimethyl-1 H-pyrimidine-2,4-dione], the pIC50 is below 4.00.

`COc1ccc(C(=O)CSc2c(C)c(=O)n(Cc3ccccc3)c(=O)n2C)cc1` [Example 33h, 3-Benzyl-6-[2-(4-methoxy-phenyl)-2-oxo-ethylsulfanyl]-1,5-dimethyl-1H-pyrimidine-2,4-dione]: the pIC50 is below 4.00.

As for `Cc1c(SCc2ccc3nc(C(F)(F)F)cc(Cl)c3c2)[nH]c(=O)n(Cc2ccccc2)c1=O` [Example 33i, 3-Benzyl-6-(4-chloro-2-trifluoromethyl-quinolin-6-ylmethylsulfanyl)-5-methyl-1H-pyrimidine-2,4-dione], the pIC50 was below 4.00.

Turning to `Cc1onc(-c2ccccc2)c1C(=O)CSc1[nH]c(=O)n(Cc2ccccc2)c(=O)c1C` [Example 33j, 3-Benzyl-5-methyl-6-[2-(5-methyl-3-phenyl-isoxazol-4-yl)-2-oxo-ethylsulfanyl]-1H-pyrimidine-2,4-dione], the pIC50 was 4.64.

For the compound `COc1ccc2nc(CSc3[nH]c(=O)n(Cc4ccccc4)c(=O)c3C)c(=O)oc2c1` [Example 33k, 3-Benzyl-6-(7-methoxy-2-oxo-2H-1,4-benzoxazin-3-ylmethylsulfanyl)-5-methyl-1H-pyrimidine-2,4-dione], the pIC50 is below 4.52.

Regarding `Cc1c(SCC(=O)c2cc(-c3ccccc3)no2)[nH]c(=O)n(Cc2ccccc2)c1=O` [Example 33l, 3-Benzyl-5-methyl-6-[2-oxo-2-(3-phenyl-isoxazol-5-yl)-ethylsulfanyl]-1H-pyrimidine-2,4-dione], the pIC50 was below 4.52.

On to `Cc1c(SCCCc2ccccc2)[nH]c(=O)n(Cc2ccccc2)c1=O` [Example 33m, 3-Benzyl-5-methyl-6-(3-phenyl-propylsulfanyl)-1H-pyrimidine-2,4-dione], for which the pIC50 was below 4.00.

Regarding `Cc1c(SCCC(=O)c2ccc(F)cc2)[nH]c(=O)n(Cc2ccccc2)c1=O` [Example 33n, 3-Benzyl-6-[3-(4-fluoro-phenyl)-3-oxo-propylsulfanyl]-5-methyl-1H-pyrimidine-2,4-dione], the pIC50 was below 4.52.

For the compound `Cc1c(SCc2ccc3ccccc3c2)[nH]c(=O)n(Cc2ccccc2)c1=O` [Example 33o, 3-Benzyl-5-methyl-6-(naphthalen-2-ylmethylsulfanyl)-1H-pyrimidine-2,4-dione], the pIC50 is below 4.00.

Regarding `Cc1c(SCC(=O)c2ccc(-c3ccccc3)cc2)[nH]c(=O)n(Cc2ccccc2)c1=O` [Example 33p, 3-Benzyl-6-(2-biphenyl-4-yl-2-oxo-ethylsulfanyl)-5-methyl-1H-pyrimidine-2,4-dione], the pIC50 is below 4.52.

As for `Cc1c(SCc2nc3ccccc3[nH]2)[nH]c(=O)n(Cc2ccccc2)c1=O` [Example 33q, 6-(1H-Benzimidazol-2-ylmethylsulfanyl)-3-benzyl-5-methyl-1H-pyrimidine-2,4-dione], the pIC50 was below 4.00.

`Cc1c(SCCCC(=O)c2ccc(Br)cc2)[nH]c(=O)n(Cc2ccccc2)c1=O` [Example 33r, 3-Benzyl-6-[4-(4-bromo-phenyl)-4-oxo-butylsulfanyl]-5-methyl-1H-pyrimidine-2,4-dione]: the pIC50 was below 4.00.

With `Cc1c(SCCCCOc2ccccc2)[nH]c(=O)n(Cc2ccccc2)c1=O` [Example 33s, 3-Benzyl-5-methyl-6-(4-phenoxy-butylsulfanyl)-1H-pyrimidine-2,4-dione], the pIC50 was below 4.00.

For the compound `Cc1c(SCC(=O)c2cc(-c3ccc(Cl)cc3Cl)no2)[nH]c(=O)n(Cc2ccccc2)c1=O` [Example 33t, 3-Benzyl-6-{2-[3-(2,4-dichloro-phenyl)-isoxazol-5-yl]-2-oxo-ethylsulfanyl}-5-methyl-1H-pyrimidine-2,4-dione], the pIC50 is below 4.52.

For `Cc1c(SCc2ccccc2-c2ccccc2)[nH]c(=O)n(Cc2ccccc2)c1=O` [Example 33u, 3-Benzyl-6-(biphenyl-2-ylmethylsulfanyl)-5-methyl-1 H-pyrimidine-2,4-dione], the pIC50 was below 4.00.

In the case of `COc1ccc(C(=O)CSc2[nH]c(=O)n(Cc3ccccc3)c(=O)c2C)cc1` [Example 33v, 3-Benzyl-6-[2-(4-methoxy-phenyl)-2-oxo-ethylsulfanyl]-5-methyl-1H-pyrimidine-2,4-dione], the pIC50 is 4.74.

The same test, now with this note: values in text, given as about; read-out: IC50 with MMP-13 catalytic domain.
With `Cc1c(SCc2cc(-c3ccc(Cl)cc3)on2)[nH]c(=O)n(Cc2ccccc2)c1=O` [Example 6, 3-Benzyl-6-[5-(4-chloro-phenyl)-isoxazol-3-ylmethylsulfanyl]-5-methyl-1H-pyrimidine-2,4-dione], the pIC50 was around 5.68.

`COc1ccc(-c2cc(CSc3[nH]c(=O)n(Cc4ccccc4)c(=O)c3C)on2)cc1` [Example 7, 3-Benzyl-6-[3-(4-methoxy-phenyl)-isoxazol-5-ylmethylsulfanyl]-5-methyl-1H-pyrimidine-2,4-dione]: the pIC50 is around 6.36.

`Cc1c(SCc2cc(-c3ccc(Cl)cc3)no2)[nH]c(=O)n(Cc2ccccc2)c1=O` [Example 20, 3-Benzyl-6-[3-(4-chloro-phenyl)-isoxazol-5-ylmethylsulfanyl]-5-methyl-1H-pyrimidine-2,4-dione]: the pIC50 is around 5.92.

Consider `COc1ccc2nc(Nc3[nH]c(=O)n(Cc4ccccc4)c(=O)c3C)sc2c1` [Example 29, 3-Benzyl-6-(6-methoxy-benzothiazol-2-ylamino)-5-methyl-1H-pyrimidine-2,4-dione], for which the pIC50 is around 6.36.
